This note sets out measurements from patent US8106055B2, “Substituted amide compounds” (Gruenenthal GmbH, priority 2007, dated 2012).

The target in experiment [1] is T1, serotonin (5-HT) reuptake (Rattus norvegicus, UniProt P31652).
T1 construct: synaptosomes are freshly isolated from areas of the rat brain; from tissue; host or cells: rat brain synaptosomes (P2 fraction)
The experiment can be described thus: Inhibition of serotonin (5HT) reuptake in synaptosomes from rat brain. The class given is biochemical. How it is done: Binding data of the compounds on the μ opioid receptor and data on the inhibition of reuptake of serotonin (5-HT) are given in Table 1. The data for the μ receptor were measured at a test concentration of 1 μM, and those for the serotonin reuptake at 10 μM. The values are stated in % inhibition.
Inhibition of Serotonin (5HT) Reuptake
In order to be able to carry out these in vitro studies, synaptosomes are freshly isolated from areas of the rat brain. In each case a so-called “P2” fraction prepared in accordance with the instructions of Gray and Whittaker (E. G. Gray and V. P. Whittaker (1962) J. Anat. 76, 79-88) is prepared. For the NA uptake, these vesicular particles are isolated from the hypothalamus of male rat brains.
A detailed description of the method can be found in the literature (M. Ch. Frink, H.-H. Hennies, W. Englberger, M. Haurand and B. Wilffert (1996) Arzneim.-Forsch./Drug Res. 46 (III), 11, 1029-1036).

For experiment [2], the target named is T2, human bradykinin 1 receptor (B1R) (Homo sapiens, UniProt P46663).
T2 construct: expressed in transfected cells; host or cells: CHO K1 cells
T2 sequence (P46663 1-353): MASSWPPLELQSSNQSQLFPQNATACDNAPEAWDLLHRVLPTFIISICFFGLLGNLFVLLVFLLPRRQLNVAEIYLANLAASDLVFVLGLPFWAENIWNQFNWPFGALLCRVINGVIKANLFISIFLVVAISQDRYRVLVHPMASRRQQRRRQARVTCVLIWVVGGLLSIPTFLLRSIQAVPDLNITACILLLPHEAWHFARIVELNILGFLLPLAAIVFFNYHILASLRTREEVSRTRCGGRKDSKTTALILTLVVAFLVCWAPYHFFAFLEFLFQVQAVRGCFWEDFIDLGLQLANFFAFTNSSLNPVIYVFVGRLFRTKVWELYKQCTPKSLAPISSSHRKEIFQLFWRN
In words: Functional investigation on the human bradykinin 1 receptor (B1R), Ca2+ FLIPR assay in CHO K1 hB1R cells. The following applies: for B1R Ant. h [10 μM] % Inhibition: B1R antagonism human. The class given is cell-based. Summed up: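 Cells were dye-loaded with Fluo-4 plus probenecid, then test substances added and Ca2+ influx compared with agonist control for % activation. After 10-20 min, EC80 agonist (Lys-Des-Arg9-bradykinin human; Des-Arg9-bradykinin rat) was applied; suppression gave % inhibition and IC50 values.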

Experiment [3] concerns the target T3, human μ opiate receptor (Homo sapiens, UniProt P35372).
T3 construct: purchased PerkinElmer Life Sciences, Zaventem, Belgium RB-HOM; host or cells: CHO-K1 cells (membrane preparation)
In words: Affinity for the human μ opiate receptor ([3H]-naloxone displacement, CHO-K1 receptor membrane preparation, SPA). The experiment is classed as binding. Put shortly:
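Membranes from CHO-K1 cells expressing the human μ opiate receptor (15-40 μg protein per well) were incubated with test compound, 1 nmol/l [3H]-naloxone and WGA-SPA beads in 50 mmol/l Tris-HCl with 0.06% BSA for 90 minutes at room temperature. Values are % inhibition of specific binding at 1 μmol/l.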

Setting [4] is: test concentration of 10 μM, read-out: 5-HT (inhibition of reuptake of serotonin, % inhibition).
Setting [5] is: CHO-K1, B1R antagonism human, test substance 10 μM, Ca2+ FLIPR, CHO K1 hB1R cells, read-out: B1R Ant. h [10 μM] % Inhibition.
[6] abbreviates: test concentration of 1 μM, read-out: μ (binding on the μ opioid receptor, % inhibition).
Where [7] appears, read: CHO-K1, read-out: B1R Ant. h [10 μM] % Inhibition.
[8] abbreviates: test substance 10 μM, Ca2+ FLIPR, CHO K1 hB1R cells.
Setting [9] is: Table 2, test concentration 10 μM, read-out: 5-HT reuptake.
Where [10] appears, read: 1.5 h, Table 2, test concentration 1 μM, read-out: μ receptor.

Where two headings read alike, the source gives them in different places.

T1 sequence (P31652 whole entry): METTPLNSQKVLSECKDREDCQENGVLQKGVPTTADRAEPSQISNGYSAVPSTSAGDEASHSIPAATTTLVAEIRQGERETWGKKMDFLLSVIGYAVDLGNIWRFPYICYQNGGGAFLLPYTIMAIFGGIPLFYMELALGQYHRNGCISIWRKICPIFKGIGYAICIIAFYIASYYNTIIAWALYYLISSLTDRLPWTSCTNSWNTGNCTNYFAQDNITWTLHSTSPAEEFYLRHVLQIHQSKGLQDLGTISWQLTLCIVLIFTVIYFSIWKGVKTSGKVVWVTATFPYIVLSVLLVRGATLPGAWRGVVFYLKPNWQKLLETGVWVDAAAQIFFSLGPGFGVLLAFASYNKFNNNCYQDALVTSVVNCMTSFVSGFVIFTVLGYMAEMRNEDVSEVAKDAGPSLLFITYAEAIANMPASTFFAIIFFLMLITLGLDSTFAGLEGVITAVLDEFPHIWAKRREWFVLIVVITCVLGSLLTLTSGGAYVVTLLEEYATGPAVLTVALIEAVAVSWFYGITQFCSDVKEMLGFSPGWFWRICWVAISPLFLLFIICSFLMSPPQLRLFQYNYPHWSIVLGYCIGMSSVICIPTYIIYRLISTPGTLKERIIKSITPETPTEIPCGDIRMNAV
T3 sequence (P35372 whole entry): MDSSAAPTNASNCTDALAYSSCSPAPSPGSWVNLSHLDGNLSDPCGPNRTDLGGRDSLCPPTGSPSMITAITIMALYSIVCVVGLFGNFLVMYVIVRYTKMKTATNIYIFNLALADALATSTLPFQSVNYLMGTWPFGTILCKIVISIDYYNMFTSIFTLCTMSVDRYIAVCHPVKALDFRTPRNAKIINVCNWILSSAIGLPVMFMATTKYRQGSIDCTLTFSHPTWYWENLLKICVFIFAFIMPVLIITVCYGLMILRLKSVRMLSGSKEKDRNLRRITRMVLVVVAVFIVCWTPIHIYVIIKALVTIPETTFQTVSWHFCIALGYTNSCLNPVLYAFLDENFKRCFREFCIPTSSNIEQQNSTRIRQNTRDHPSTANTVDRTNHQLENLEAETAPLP

Turning to `COc1cc(C)c(S(=O)(=O)N(C)CCOCC(=O)NCC2CCC(C(c3ccccc3)N(C)C)CC2)c(C)c1C` (stereo not drawn) [Example 40, N-((4-((dimethylamino)(phenyl)methyl)cyclohexyl)methyl)-2-(2-(4-methoxy-N,2,3,6-tetramethylphenylsulfonamido)ethoxy)acetamide], the inhibition at 10 µM was found to be 84% in experiment [1] (setting [4]) and 99% in experiment [2] (setting [5]). Besides, the inhibition at 1 µM in experiment [3] (setting [6]) amounted to 96%.
Take `COc1ccc(S(=O)(=O)N2CCCCC2COCC(=O)NC2CCC(C(c3ccccc3)N(C)C)CC2)cc1` (stereo not drawn) [Example 154, N-(4-((dimethylamino)(phenyl)methyl)cyclohexyl)-2-((1-(4-methoxyphenylsulfonyl)piperidin-2-yl)methoxy)acetamide]: the inhibition at 10 µM in experiment [1] (setting [4]) amounted to 90%; in experiment [2] (setting [7]), 69%. Moreover, the inhibition at 1 µM in experiment [3] (setting [6]) worked out at 83%.
Consider `COc1ccc(S(=O)(=O)N2CCCCC2COCC(=O)NC2CCC(C(c3ccccc3)N(C)C)CC2)c(OC)c1` (stereo not drawn) [Example 187, 2-((1-(2,4-dimethoxyphenylsulfonyl)piperidin-2-yl)methoxy)-N-(4-((dimethylamino)(phenyl)methyl)cyclohexyl)acetamide], for which the inhibition at 10 µM is 81% in experiment [1] (setting [4]) and -6% in experiment [2] (setting [5]). In experiment [3] (setting [6]), the inhibition at 1 µM is 79%.
Take `Cc1cc(C)c(S(=O)(=O)N(C)CCOCC(=O)NCCC2CCC(C(c3cccs3)N(C)C)CC2)c(C)c1` (stereo not drawn) [Example 385]: in experiment [1] (test concentration of 10 μM), the “5-HT (inhibition of reuptake of serotonin, % inhibition)” value was determined as 93%. The “B1R Ant. h [10 μM] % Inhibition” value in experiment [2] (setting [8]) came out at 15%. For the same compound, the “μ (binding on the μ opioid receptor, % inhibition)” value in experiment [3] (test concentration of 1 μM) came out at 59%.
`CN(C)C(c1ccccc1)C1CCC(NC(=O)COC2CCCN(S(=O)(=O)c3ccccc3)C2)CC1` (stereo not drawn) [Example 109, N-(4-((dimethylamino)(phenyl)methyl)cyclohexyl)-2-(1-(phenylsulfonyl)piperidin-3-yloxy)acetamide]: the inhibition at 10 µM amounted to 87% in experiment [1] (setting [4]) and 26% in experiment [2] (setting [5]). Moreover, in experiment [3] (setting [6]), the inhibition at 1 µM amounted to 89%.
With `COc1cc(C)c(S(=O)(=O)N(CCOCC(=O)NC2CCC(C(c3ccccc3)N(C)C)CC2)Cc2ccccc2)c(C)c1` (stereo not drawn) [Example 483], the “5-HT (inhibition of reuptake of serotonin, % inhibition)” value in experiment [1] (test concentration of 10 μM) was found to be 65%. Moreover, the “B1R Ant. h [10 μM] % Inhibition” value in experiment [2] (setting [8]) is recorded as 34%. In addition, in experiment [3] (test concentration of 1 μM), the “μ (binding on the μ opioid receptor, % inhibition)” value came to 38%.
Take `O=C(COCCN(C1CC1)S(=O)(=O)c1c(Cl)cc(Cl)cc1Cl)NC1CCC(C(c2ccccc2)N2CCCCC2)CC1` (stereo not drawn) [Example 602, 2-{2-[cyclopropyl-(2,4,6-trichlorobenzenesulfonyl)-amino]-ethoxy}-N-[4-(phenylpiperidin-1-ylmethyl)-cyclohexyl]-acetamide]: the inhibition at 10 µM was determined as 51% in experiment [1] (setting [9]) and 81% in experiment [2] (setting [5]). Further, the inhibition at 1 µM in experiment [3] (setting [10]) turned out to be 55%.
In the case of `COc1cc(C)c(S(=O)(=O)N(C)CCOCC(=O)NC2CCC(C(c3ccc(F)cc3)N(C)C)CC2)c(C)c1C` (stereo not drawn) [Example 380], the “5-HT (inhibition of reuptake of serotonin, % inhibition)” value in experiment [1] (test concentration of 10 μM) was found to be 81%. The “B1R Ant. h [10 μM] % Inhibition” value in experiment [2] (setting [8]) is on record as 86%. Besides, the “μ (binding on the μ opioid receptor, % inhibition)” value in experiment [3] (test concentration of 1 μM) came to 55%.
For the compound `CN(C)C(c1ccccc1)C1CCC(NC(=O)COCc2c(N(C)S(=O)(=O)c3ccc(Cl)c(Cl)c3)sc3c2CCCC3)CC1` (stereo not drawn) [Example 369], the “5-HT (inhibition of reuptake of serotonin, % inhibition)” value in experiment [1] (test concentration of 10 μM) turned out to be 66%. In addition, the “B1R Ant. h [10 μM] % Inhibition” value in experiment [2] (setting [8]) came out at 21%. In addition, in experiment [3] (test concentration of 1 μM), the “μ (binding on the μ opioid receptor, % inhibition)” value is on record as 66%.
Turning to `CN(Cc1ccccc1)C(c1ccccc1)C1CCC(NC(=O)COCCN(C)S(=O)(=O)c2c(Cl)cc(Cl)cc2Cl)CC1` (stereo not drawn) [Example 599, N-{4-[(benzylmethylamino)-phenylmethyl]-cyclohexyl}-2-{2-[methyl-(2,4,6-trichlorobenzenesulfonyl)-amino]-ethoxy}-acetamide], the inhibition at 10 µM in experiment [1] (setting [9]) was 33%; in experiment [2] (setting [5]), -6%. Moreover, the inhibition at 1 µM in experiment [3] (setting [10]) was 91%.
As for `CN(C)C(c1ccccc1)C1CCC(NC(=O)COCCN(Cc2ccccc2)S(=O)(=O)c2ccccc2)CC1` (stereo not drawn) [Example 51, 2-(2-(N-benzylphenylsulfonamido)ethoxy)-N-(4-((dimethylamino)(phenyl)methyl)cyclohexyl)acetamide], the inhibition at 10 µM worked out at 88% in experiment [1] (setting [4]) and 9% in experiment [2] (setting [7]). Also, the inhibition at 1 µM in experiment [3] (setting [6]) was found to be 95%.
With `COc1ccc(S(=O)(=O)N2CCCCC2COCC(=O)NC2CCC(C(c3ccccc3)N(C)C)CC2)cc1OC` (stereo not drawn) [Example 198, 2-((1-(3,4-dimethoxyphenylsulfonyl)piperidin-2-yl)methoxy)-N-(4-((dimethylamino)(phenyl)methyl)cyclohexyl)acetamide], the results for the inhibition at 10 µM in experiment [1] (setting [4]) and in experiment [2] (setting [5]) were 88% and -12%, respectively. Further, in experiment [3] (setting [6]), the inhibition at 1 µM came out at 78%.
Regarding `COc1cc(C)c(S(=O)(=O)N(C)CCOCC(=O)NCC2CCC(C(CCc3ccccc3)N(C)C)CC2)c(C)c1C` (stereo not drawn) [Example 453], the “5-HT (inhibition of reuptake of serotonin, % inhibition)” value in experiment [1] (test concentration of 10 μM) stood at 89%. In addition, the “B1R Ant. h [10 μM] % Inhibition” value in experiment [2] (setting [8]) was determined as 97%. The “μ (binding on the μ opioid receptor, % inhibition)” value in experiment [3] (test concentration of 1 μM) is 46%.
For the compound `CN(C)C(c1cccs1)C1CCC(CCNC(=O)COCCN(C)S(=O)(=O)c2c(F)c(F)c(F)c(F)c2F)CC1` (stereo not drawn) [Example 465], in experiment [1] (test concentration of 10 μM), the “5-HT (inhibition of reuptake of serotonin, % inhibition)” value turned out to be 72%. Further, the “B1R Ant. h [10 μM] % Inhibition” value in experiment [2] (setting [8]) is reported as −3%. The “μ (binding on the μ opioid receptor, % inhibition)” value in experiment [3] (test concentration of 1 μM) worked out at 48%.
In the case of `Cc1cc(C)c(S(=O)(=O)N(C)CCOCC(=O)NCCC2CCC(C(c3ccc(F)cc3)N(C)C)CC2)c(C)c1` (stereo not drawn) [Example 417], the “5-HT (inhibition of reuptake of serotonin, % inhibition)” value in experiment [1] (test concentration of 10 μM) was determined as 91%. Further, the “B1R Ant. h [10 μM] % Inhibition” value in experiment [2] (setting [8]) is listed as 100%. For the same compound, the “μ (binding on the μ opioid receptor, % inhibition)” value in experiment [3] (test concentration of 1 μM) came to 60%.
Regarding `CN(C)C(c1ccccc1)C1CCC(NC(=O)COCCC2CCN(S(=O)(=O)c3ccccc3)CC2)CC1` (stereo not drawn) [Example 124, N-(4-((dimethylamino)(phenyl)methyl)cyclohexyl)-2-(2-(1-(phenylsulfonyl)piperidin-4-yl)ethoxy)acetamide], the inhibition at 10 µM in experiment [1] (setting [4]) is 89%; in experiment [2] (setting [5]), 9%. In addition, in experiment [3] (setting [6]), the inhibition at 1 µM amounted to 87%.
For `CN(C)C(c1ccccc1)C1CCC(NC(=O)COCC2CCCCN2S(=O)(=O)c2cccc(Cl)c2Cl)CC1` (stereo not drawn) [Example 24, 2-((1-(2,3-dichlorophenylsulfonyl)piperidin-2-yl)methoxy)-N-(4-((dimethylamino)(phenyl)methyl)cyclohexyl)acetamide], the figures for the inhibition at 10 µM in experiment [1] (setting [4]) and in experiment [2] (setting [5]) were 67% and 99%, respectively. In addition, the inhibition at 1 µM in experiment [3] (setting [6]) was 97%.
